We go through nine compounds from ChEMBL document CHEMBL4145687, “Novel Scaffolds for Dual Specificity Tyrosine-Phosphorylation-Regulated Kinase (DYRK1A) Inhibitors” (J Med Chem, 2018).

Structures are written as SMILES. pIC50, pKi: −log10 of the molar value. Activity calls are given as the source filed them. No cut-off for these calls is given here. Some results are limits rather than exact numbers.

As a reminder, the pIC50 is −log10 of the IC50, conventionally taken in molar units. The pKi is −log10 of the Ki, conventionally taken in molar units.

Experiment [1] deals with T1, Dual specificity tyrosine-phosphorylation-regulated kinase 1A (Homo sapiens, UniProt Q13627). The experiment in a line: Inhibition of DYRK1A (unknown origin) using DYRKtide as substrate by ATP regenerative NADH consuming assay. As to conditions: for pIC50: read-out: IC50; for pKi: read-out: Ki.
For experiment [2], the target named is T1, Dual specificity tyrosine-phosphorylation-regulated kinase 1A. The experiment is described as follows: Inhibition of DYRK1A (unknown origin) assessed as remaining enzyme activity at 20 uM using DYRKtide as substrate by ATP regenerative NADH consuming assay.
Experiment [3] has the same target. The experiment in a line: Inhibition of EGFP-tagged DYRK1A (unknown origin) expressed in human NCI-H1299 cells expressing FLAG-tagged tau assessed as reduction in tau T212 phosphorylation at 1 to 10 uM incubated for 2 hrs by Western blot analysis. The format is cell-based. On the technique in general: A western blot detects proteins with antibodies after separation by electrophoresis.

Experiment [4] shares this target. The experiment in a line: Inhibition of human DYRK1A expressed in HEK293 cells assessed as compound concentration causing 1.5 fold […] by NFAT response element-driven luciferase reporter gene assay relative to basal level. The format is cell-based. A general note: Reporter assays use an easily measured gene product as a stand-in for the process of interest.

Experiment [5] addresses Mitogen-activated protein kinase 7 (Homo sapiens) (UniProt Q13164). The experiment in a line: Inhibition of human ERK5 expressed in bacterial expression system at 10 uM.
Experiment [6] addresses T2, Serine/threonine-protein kinase 17B (Homo sapiens) (UniProt O94768).
T2 sequence (whole entry): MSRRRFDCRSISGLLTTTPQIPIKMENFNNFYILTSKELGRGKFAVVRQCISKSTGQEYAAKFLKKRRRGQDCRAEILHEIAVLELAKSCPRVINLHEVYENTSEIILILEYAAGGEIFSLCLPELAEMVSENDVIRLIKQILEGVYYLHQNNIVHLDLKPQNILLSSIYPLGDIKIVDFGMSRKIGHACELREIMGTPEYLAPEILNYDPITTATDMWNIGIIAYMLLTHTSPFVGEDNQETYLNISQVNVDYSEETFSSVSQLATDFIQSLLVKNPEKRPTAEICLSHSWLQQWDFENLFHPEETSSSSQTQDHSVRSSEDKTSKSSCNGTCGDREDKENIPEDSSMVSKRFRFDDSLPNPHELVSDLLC
The experiment is described as follows: Inhibition of human DRAK2 expressed in bacterial expression system at 10 uM.

Experiment [7] addresses T1, Dual specificity tyrosine-phosphorylation-regulated kinase 1A. The experiment is described as follows: Inhibition of human DYRK1A expressed in HEK293 cells assessed as […] at 1 uM by NFAT response element-driven luciferase reporter gene assay relative to harmine. The format is cell-based.
The target of experiment [8] is T3, Serine/threonine-protein kinase 17A (Homo sapiens) (UniProt Q9UEE5).
T3 sequence (whole entry): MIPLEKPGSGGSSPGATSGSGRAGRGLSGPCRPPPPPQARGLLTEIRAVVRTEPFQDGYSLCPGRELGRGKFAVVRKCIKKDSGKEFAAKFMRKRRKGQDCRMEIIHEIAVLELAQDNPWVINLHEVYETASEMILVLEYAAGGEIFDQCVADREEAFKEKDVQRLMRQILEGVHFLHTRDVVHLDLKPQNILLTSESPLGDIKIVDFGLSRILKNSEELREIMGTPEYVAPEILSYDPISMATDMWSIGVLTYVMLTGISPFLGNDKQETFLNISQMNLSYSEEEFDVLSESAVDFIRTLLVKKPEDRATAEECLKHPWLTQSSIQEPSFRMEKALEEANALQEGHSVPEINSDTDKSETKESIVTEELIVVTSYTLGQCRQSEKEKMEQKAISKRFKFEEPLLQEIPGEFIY
The experiment is described as follows: Inhibition of human DRAK1 expressed in bacterial expression system at 10 uM.

Experiment [9] deals with Tyrosine-protein kinase ABL1 (Homo sapiens) (UniProt P00519). The experiment is described as follows: Inhibition of human ABL1 at 10 uM.
Experiment [10] deals with Platelet-derived growth factor receptor alpha (Homo sapiens) (UniProt P16234). The experiment is described as follows: Inhibition of human PDGFRalpha expressed in mammalian expression system at 10 uM.
For experiment [11], the target named is Dual specificity protein kinase CLK2 (Homo sapiens) (UniProt P49760). The experiment is described as follows: Inhibition of human CLK2 expressed in bacterial expression system at 10 uM.
The target of experiment [12] is Platelet-derived growth factor receptor beta (Homo sapiens) (UniProt P09619). The experiment is described as follows: Inhibition of human PDGFRbeta expressed in bacterial expression system at 10 uM.
Experiment [13] concerns the target Homeodomain-interacting protein kinase 1 (Homo sapiens) (UniProt Q86Z02). The experiment is described as follows: Inhibition of human HIPK1 expressed in mammalian expression system at 10 uM.
For experiment [14], the target named is Glycogen synthase kinase-3 beta (Homo sapiens) (UniProt P49841). The experiment is described as follows: Inhibition of human GSK3beta expressed in mammalian expression system at 10 uM.
In experiment [15] the target is Cyclin-dependent kinase 7 (Homo sapiens) (UniProt P50613). The experiment in a line: Inhibition of human CDK7 expressed in mammalian expression system at 10 uM.
Experiment [16] concerns the target Homeodomain-interacting protein kinase 2 (Homo sapiens) (UniProt Q9H2X6). The experiment is described as follows: Inhibition of human HIPK2 expressed in mammalian expression system at 10 uM.
Experiment [17] has as its target T1, Dual specificity tyrosine-phosphorylation-regulated kinase 1A. The experiment is described as follows: Inhibition of human DYRK1A expressed in HEK293 cells assessed as […] at 0.1 uM by NFAT response element-driven luciferase reporter gene assay relative to harmine. The format is cell-based.
Experiment [18] addresses Serine/threonine-protein kinase mTOR (Homo sapiens) (UniProt P42345). The experiment in a line: Inhibition of human mTOR expressed in mammalian expression system at 10 uM.
Experiment [19] has as its target T1, Dual specificity tyrosine-phosphorylation-regulated kinase 1A. The experiment in a line: Inhibition of human DYRK1A expressed in mammalian expression system at 1 uM.
In experiment [20] the target is Dual specificity tyrosine-phosphorylation-regulated kinase 1B (Homo sapiens) (UniProt Q9Y463). The experiment in a line: Inhibition of human DYRK1B expressed in bacterial expression system at 1 uM.
Experiment [21] concerns the target Glycogen synthase kinase-3 alpha (Homo sapiens) (UniProt P49840). The experiment in a line: Inhibition of human GSK3A expressed in bacterial expression system at 1 uM.
The target of experiment [22] is Phosphatidylinositol 4,5-bisphosphate 3-kinase catalytic subunit gamma isoform (Homo sapiens) (UniProt P48736). The experiment in a line: Inhibition of human PIK3CG expressed in mammalian expression system at 1 uM.
In experiment [23] the target is Dual specificity protein kinase CLK1 (Homo sapiens) (UniProt P49759). The experiment in a line: Inhibition of human CLK1 expressed in bacterial expression system at 1 uM.
Experiment [24] deals with Glycogen synthase kinase-3 beta (Homo sapiens) (UniProt P49841). The experiment in a line: Inhibition of human GSK3beta expressed in mammalian expression system at 1 uM.
Experiment [25] has as its target Dual specificity protein kinase CLK3 (Homo sapiens) (UniProt P49761). The experiment is described as follows: Inhibition of human CLK3 expressed in bacterial expression system at 1 uM.
For experiment [26], the target named is Phosphatidylinositol 4-kinase beta (Homo sapiens) (UniProt Q9UBF8). The experiment in a line: Inhibition of human PIK4CB expressed in mammalian expression system at 1 uM.

Chain of Dual specificity protein kinase CLK2 (Homo sapiens) (P49760 whole entry, looked up): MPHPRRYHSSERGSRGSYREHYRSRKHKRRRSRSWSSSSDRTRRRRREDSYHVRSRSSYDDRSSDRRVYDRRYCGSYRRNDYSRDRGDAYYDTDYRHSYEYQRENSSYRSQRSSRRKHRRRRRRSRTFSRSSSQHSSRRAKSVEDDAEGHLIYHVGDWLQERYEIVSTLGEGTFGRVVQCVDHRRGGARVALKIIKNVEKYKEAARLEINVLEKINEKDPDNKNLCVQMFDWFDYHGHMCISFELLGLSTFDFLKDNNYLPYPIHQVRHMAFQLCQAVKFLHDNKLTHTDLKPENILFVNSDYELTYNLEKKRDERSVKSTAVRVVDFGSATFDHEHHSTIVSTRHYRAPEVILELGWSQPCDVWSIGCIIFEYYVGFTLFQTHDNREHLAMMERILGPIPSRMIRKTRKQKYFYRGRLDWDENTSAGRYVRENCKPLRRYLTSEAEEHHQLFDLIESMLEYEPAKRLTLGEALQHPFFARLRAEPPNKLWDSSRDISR
Chain of Glycogen synthase kinase-3 beta (Homo sapiens) (P49841 whole entry, looked up): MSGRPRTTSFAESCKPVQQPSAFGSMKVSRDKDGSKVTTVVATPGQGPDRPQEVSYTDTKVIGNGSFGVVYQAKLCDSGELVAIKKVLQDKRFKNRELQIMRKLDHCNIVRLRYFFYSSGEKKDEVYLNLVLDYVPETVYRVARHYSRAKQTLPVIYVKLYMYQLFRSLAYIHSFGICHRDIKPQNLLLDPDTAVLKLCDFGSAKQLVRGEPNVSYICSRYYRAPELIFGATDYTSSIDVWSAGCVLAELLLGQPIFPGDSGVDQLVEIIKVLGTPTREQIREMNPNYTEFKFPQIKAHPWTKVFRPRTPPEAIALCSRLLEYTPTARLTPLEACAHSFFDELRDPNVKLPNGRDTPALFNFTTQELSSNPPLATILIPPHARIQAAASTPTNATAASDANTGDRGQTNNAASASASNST
Chain of Platelet-derived growth factor receptor beta (Homo sapiens) (P09619 whole entry): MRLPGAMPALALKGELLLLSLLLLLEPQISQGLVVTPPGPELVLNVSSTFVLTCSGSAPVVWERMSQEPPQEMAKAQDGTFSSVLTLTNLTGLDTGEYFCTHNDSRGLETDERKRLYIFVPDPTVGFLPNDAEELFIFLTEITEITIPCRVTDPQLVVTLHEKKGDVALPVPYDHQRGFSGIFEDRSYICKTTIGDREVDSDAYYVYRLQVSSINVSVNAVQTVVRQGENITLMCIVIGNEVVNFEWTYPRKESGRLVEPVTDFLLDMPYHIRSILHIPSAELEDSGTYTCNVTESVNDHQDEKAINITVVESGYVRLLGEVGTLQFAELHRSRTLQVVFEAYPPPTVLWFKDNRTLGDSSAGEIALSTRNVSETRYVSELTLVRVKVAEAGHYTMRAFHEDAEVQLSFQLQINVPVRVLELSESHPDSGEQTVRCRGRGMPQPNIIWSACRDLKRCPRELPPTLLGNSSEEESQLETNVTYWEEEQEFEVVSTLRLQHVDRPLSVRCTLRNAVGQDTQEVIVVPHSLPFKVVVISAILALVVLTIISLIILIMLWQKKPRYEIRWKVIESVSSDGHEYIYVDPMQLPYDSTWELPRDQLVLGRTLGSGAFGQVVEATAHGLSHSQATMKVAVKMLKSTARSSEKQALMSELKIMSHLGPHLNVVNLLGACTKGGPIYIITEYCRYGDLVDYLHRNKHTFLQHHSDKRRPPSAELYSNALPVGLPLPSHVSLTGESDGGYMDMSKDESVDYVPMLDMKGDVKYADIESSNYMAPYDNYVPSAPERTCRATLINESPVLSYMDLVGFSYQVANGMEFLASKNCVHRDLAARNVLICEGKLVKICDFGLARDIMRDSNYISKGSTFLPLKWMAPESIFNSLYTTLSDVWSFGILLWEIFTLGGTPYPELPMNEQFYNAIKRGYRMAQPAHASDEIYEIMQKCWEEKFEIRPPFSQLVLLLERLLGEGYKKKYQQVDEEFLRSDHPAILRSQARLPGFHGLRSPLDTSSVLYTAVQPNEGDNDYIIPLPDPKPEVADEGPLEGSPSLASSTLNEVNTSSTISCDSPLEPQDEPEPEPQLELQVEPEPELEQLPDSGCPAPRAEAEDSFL
Chain of Homeodomain-interacting protein kinase 1 (Homo sapiens) (Q86Z02 whole entry, looked up): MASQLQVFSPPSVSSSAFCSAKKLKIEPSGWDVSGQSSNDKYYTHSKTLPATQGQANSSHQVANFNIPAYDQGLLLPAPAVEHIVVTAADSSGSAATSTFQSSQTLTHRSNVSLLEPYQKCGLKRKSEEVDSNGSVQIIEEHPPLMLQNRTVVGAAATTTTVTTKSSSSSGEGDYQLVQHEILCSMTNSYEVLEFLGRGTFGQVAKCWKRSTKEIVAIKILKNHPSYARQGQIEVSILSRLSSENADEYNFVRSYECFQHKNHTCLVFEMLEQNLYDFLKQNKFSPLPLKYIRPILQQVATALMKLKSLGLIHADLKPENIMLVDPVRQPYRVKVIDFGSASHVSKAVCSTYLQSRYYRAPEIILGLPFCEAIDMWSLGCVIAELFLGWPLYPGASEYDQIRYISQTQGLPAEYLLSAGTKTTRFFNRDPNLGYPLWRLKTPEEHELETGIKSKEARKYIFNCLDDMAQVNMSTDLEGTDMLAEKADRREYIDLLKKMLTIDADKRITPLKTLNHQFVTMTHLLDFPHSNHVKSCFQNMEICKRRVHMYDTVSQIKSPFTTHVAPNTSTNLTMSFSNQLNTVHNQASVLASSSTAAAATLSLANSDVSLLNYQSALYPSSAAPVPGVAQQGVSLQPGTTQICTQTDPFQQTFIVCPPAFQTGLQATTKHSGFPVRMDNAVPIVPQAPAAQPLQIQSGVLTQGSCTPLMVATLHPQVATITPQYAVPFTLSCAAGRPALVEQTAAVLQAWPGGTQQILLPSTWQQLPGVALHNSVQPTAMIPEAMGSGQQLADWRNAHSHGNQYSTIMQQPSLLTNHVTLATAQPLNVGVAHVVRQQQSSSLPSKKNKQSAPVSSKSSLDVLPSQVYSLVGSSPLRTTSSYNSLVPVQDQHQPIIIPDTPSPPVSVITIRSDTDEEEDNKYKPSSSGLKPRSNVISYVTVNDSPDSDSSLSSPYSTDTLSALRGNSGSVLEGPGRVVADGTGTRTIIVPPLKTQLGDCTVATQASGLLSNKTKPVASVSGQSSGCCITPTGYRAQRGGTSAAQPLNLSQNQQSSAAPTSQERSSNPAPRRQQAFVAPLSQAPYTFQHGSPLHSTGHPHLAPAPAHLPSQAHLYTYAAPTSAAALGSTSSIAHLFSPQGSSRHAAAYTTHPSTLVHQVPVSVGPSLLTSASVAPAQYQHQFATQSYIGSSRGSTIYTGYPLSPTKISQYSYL
Chain of Homeodomain-interacting protein kinase 2 (Homo sapiens) (Q9H2X6 whole entry, looked up): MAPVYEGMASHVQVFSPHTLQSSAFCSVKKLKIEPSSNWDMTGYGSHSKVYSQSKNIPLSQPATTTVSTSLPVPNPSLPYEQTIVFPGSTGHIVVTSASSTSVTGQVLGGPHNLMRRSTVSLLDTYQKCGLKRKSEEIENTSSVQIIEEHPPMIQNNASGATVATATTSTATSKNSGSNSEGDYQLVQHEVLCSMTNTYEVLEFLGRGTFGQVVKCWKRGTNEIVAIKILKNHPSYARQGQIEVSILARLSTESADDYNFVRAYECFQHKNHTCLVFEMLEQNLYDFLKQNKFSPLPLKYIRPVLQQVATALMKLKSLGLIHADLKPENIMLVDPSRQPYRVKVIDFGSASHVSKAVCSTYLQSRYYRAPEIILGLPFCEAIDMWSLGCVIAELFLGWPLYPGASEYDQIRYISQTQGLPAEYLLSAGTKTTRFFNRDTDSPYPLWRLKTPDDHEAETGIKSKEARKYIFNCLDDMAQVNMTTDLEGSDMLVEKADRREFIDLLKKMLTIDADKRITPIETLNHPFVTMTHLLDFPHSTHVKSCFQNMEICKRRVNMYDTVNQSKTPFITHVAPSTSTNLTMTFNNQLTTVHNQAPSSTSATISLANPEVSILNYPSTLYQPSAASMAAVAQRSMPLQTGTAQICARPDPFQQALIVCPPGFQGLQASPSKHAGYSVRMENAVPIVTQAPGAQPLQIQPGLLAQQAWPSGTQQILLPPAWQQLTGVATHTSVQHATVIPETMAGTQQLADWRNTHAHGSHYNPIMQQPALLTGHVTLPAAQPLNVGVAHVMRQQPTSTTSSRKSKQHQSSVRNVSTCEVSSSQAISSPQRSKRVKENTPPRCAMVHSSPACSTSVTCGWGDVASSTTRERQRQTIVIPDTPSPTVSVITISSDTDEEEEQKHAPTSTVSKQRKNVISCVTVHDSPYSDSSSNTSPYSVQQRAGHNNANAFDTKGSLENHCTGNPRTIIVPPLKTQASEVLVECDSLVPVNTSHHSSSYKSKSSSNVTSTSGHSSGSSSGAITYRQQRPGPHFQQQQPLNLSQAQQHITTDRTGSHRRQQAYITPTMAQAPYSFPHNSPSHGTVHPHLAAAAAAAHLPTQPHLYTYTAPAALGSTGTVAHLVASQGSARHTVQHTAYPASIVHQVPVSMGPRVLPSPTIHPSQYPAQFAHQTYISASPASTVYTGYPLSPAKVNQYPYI
Chain of Dual specificity tyrosine-phosphorylation-regulated kinase 1B (Homo sapiens) (Q9Y463 whole entry, looked up): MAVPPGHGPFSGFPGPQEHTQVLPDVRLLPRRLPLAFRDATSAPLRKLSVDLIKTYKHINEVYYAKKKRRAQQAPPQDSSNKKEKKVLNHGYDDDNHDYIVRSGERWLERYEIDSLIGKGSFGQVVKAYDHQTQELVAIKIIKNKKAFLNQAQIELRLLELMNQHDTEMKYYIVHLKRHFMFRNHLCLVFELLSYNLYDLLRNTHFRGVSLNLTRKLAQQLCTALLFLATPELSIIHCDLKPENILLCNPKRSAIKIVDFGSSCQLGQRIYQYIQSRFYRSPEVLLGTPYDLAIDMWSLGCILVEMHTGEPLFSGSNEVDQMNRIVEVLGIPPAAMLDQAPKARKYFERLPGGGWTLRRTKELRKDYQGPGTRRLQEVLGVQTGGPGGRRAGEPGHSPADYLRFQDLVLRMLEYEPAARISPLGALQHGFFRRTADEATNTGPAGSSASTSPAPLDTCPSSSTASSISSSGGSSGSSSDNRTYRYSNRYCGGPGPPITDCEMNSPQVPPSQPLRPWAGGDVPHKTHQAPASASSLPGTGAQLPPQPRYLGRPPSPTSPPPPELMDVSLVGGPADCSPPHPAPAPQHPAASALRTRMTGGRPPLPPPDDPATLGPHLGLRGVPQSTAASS

For the compound `CN1C(=O)[C@H]2CCC[C@H]2N(C2CCCC2)c2nc(Nc3ccc(C(N)=O)cc3)ncc21`, in experiment [1], the negative-log IC50 (pIC50) was 5.38. In addition, the pKi in experiment [1] is 5.70. Also, the values for the Activity in experiment [2] and in experiment [4] were 15% and 0.5 to 1 µM, respectively. Moreover, the inhibition entry in experiment [3], in experiment [5], in [6] and in [8] was “Active” throughout. For the same compound, the fold change (FC) in [7] was 2.
Regarding `O=C(NCCN1CCOCC1)Nc1cccc(-c2ccc3nc(NC(=O)C4CC4)sc3n2)c1`, the inhibition entry in [9], in experiment [10], in [3], in [11] and in [12] was “Active” in each case. Besides, the pIC50 in experiment [1] is 5.46. Besides, the pKi in experiment [1] was 5.77. The results for the Activity in [2] and in experiment [4] were 11% and more than 20 µM, respectively.
As for `COc1cc(N2CCN(C)CC2)ccc1Nc1nc(N)c(C(=O)c2ccccc2)s1`, in [1], the pIC50 was 6.10 and the pKi is 6.42. The Activity in experiment [2] was determined as 1.3%. Moreover, the inhibition result in [3] is “Dose-dependent effect”. In experiment [4], the Activity lay within 10 to 20 µM.
Regarding `NS(=O)(=O)c1ccc(-c2cnc3[nH]cc(-c4cccnc4)c3c2)cc1`, in experiment [1], the pIC50 was 6.67. For the same compound, the pKi in experiment [1] is 6.98. For the same compound, the results for the Activity in experiment [2] and in experiment [4] were 0% and 1 to 5 µM, respectively. For the same compound, the inhibition entry in experiment [3] and in experiment [4] was “Dose-dependent effect” throughout.
Regarding `C=CC(=O)Nc1ccc(C(=O)c2sc(Nc3ccc(N4CCN(C)CC4)cc3OC)nc2N)cc1`, in experiment [1], the pIC50 was 5.92 and the pKi is 6.24. Besides, the Activity in [2] came to 4%. Also, the inhibition result in [3] was “Dose-dependent effect”. Further, the result in [4] was inactive. In addition, the inhibition entry in experiment [11] was “Active”.
As for `Nc1cccc(-c2cnc3[nH]cc(-c4cccnc4)c3c2)c1`, in experiment [1], the pIC50 is 6.48 and the pKi was 6.80. The Activity in [2] was 0%. Moreover, in [3], the inhibition result was “Dose-dependent effect”. Besides, the Activity in [4] was in the range of 5 to 10 µM.
As for `C=CC(=O)Nc1cccc(C(=O)c2sc(Nc3ccc(N4CCN(C)CC4)cc3)nc2N)c1`, in experiment [1], the IC50 entry is “Nd(Insoluble)” and the Ki entry is given as “Nd(Insoluble)”. Further, the inhibition entry in experiment [3] is “Active”. Further, the inhibition entry in [11] was “Active”.
Consider `COc1ccc(N)cc1-c1cnc(N)c(C(=O)c2cccnc2)n1`, for which, in experiment [1], the pIC50 is less than 5.22. In addition, in experiment [1], the pKi was less than 5.55. The inhibition entry in experiment [13], in experiment [14], in experiment [15], in experiment [3], in experiment [16] and in [11] was “Active” throughout. Also, the Activity in experiment [2] was 24%; in experiment [4], 5 to 10 µM.
`O=c1ccc2cnc3ccc(-c4cn[nH]c4)cc3c2n1-c1ccc(F)cc1C(F)(F)F`: in experiment [1], the pIC50 is 6.27. The pKi in [1] was 6.60. The fold change (FC) in experiment [17] was found to be 2. For the same compound, the Activity in experiment [2] is 2%; in [4], 0.05 to 0.1 µM. In addition, the inhibition result in [18], in [3], in experiment [19], in experiment [20], in [21] and in experiment [22] was “Active” throughout. The inhibition entry in experiment [23], in experiment [24], in [25] and in experiment [26] was “Active” each time.
